Measured values reported in patent US20050203102A1, “antibacterial agents” (priority 2004, published 2005).
Converted amounts (≈) assume the structure as drawn.

Experiments:
Assay in all cases: Antimicrobial testing, Agar Dilution Method (NCCLS), MIC
Assay type in all cases: cell-based
E. faecalis ATCC 29212 = settings: Enterococcus faecalis, ATCC29212, Mueller Hinton Agar, 35° C., 20 hours, read-out: Antimicrobial Screening (MIC) E. faecalis ATCC 29212
Method: (§1) Briefly, the compounds of invention were weighed, dissolved in Dimethyl Sulfoxide, serially diluted in the same solvent and then incorporated into molten Mueller Hinton Agar in a petridish before solidification, with each petridish containing a different concentration of a compound.
(§2) The Bacterial Inoculum was prepared by touching the tops of 3 to 5 well isolated bacterial colonies with the same morphological appearance from an 18 hour old culture with an inoculating loop, transferring the growth to a tube containing 5 ml of normal saline and adjusting the turbidity of the saline suspension to 0.5 Macfarland Turbidity Standard equivalent to a bacterial population of 1.5×10^8 colony forming units (CFU) per millilitre of suspension.
(§3) The bacterial inoculum prepared in the above manner was inoculated onto petri dishes containing Mueller Hinton Agar which had earlier been incorporated with different dilutions of the compounds of invention by a Multipoint Inoculator with each inoculum spot containing approximately 1×10^4 colony forming units (CFU) of bacteria.
(§4) The inoculated petridishes were incubated at 35° C. in an ambient atmosphere for 20 hours. Petridishes containing different concentrations of Vancomycin and Oxacillin and inoculated with Staphylococcus aureus, Coagulase Negative Staphylococci and Enterococci were incubated for 24 hours.
(§5) The following minimum inhibitory concentrations (μg/ml) were obtained for representative compounds of the invention which are given in the following table: […]

E. faecium ATCC 700221 = settings: Enterococcus faecium, ATCC700221, Mueller Hinton Agar, 35° C., 20 hours, read-out: Antimicrobial Screening (MIC) E. faecium ATCC 700221
Method: as §1, §2, §3, §4, §5

S. aureus MRO 00001 = settings: Staphylococcus aureus, MRO00001, Mueller Hinton Agar, 35° C., 20 hours, read-out: Antimicrobial Screening (MIC) S. aureus MRO 00001
Method: as §1, §2, §3, §4, §5

S. epidermidis MRO 02002 = settings: Staphylococcus epidermidis, MRO02002, Mueller Hinton Agar, 35° C., 20 hours, read-out: Antimicrobial Screening (MIC) S. epidermidis MRO 02002
Method: as §1, §2, §3, §4, §5

Compound | MIC (E. faecalis ATCC 29212) | MIC (E. faecium ATCC 700221) | MIC (S. aureus MRO 00001) | MIC (S. epidermidis MRO 02002)
COC(=S)NC[C@H]1CN(c2ccc(N3CCN(c4ccc(/C=C5\SC(=O)NC5=O)cc4)CC3)c(F)c2)C(=O)O1 [Example 8, (S)-N-3-[3-fluoro-4-(4-(5-methylene-1,3-thiazolidine-2,4-dione)phenylpiperazin-1-yl)phenyll-1,3-oxazolidin-2-one-5-methylthio carbamate] | 0.5 µg/mL (≈ 0.875 µM) | 0.5 µg/mL (≈ 0.875 µM) | 0.5 µg/mL (≈ 0.875 µM) | 0.5 µg/mL (≈ 0.875 µM)
CC(=O)NC[C@H]1CN(c2ccc(N3CCN(c4ccc(/C=C5/SC(=O)NC5=O)cc4)CC3)c(F)c2)C(=O)O1 [Example 4] | 1 µg/mL (≈ 1.85 µM) | 1 µg/mL (≈ 1.85 µM) | 1 µg/mL (≈ 1.85 µM) | 1 µg/mL (≈ 1.85 µM)
CC(=O)NC[C@H]1CN(c2ccc(N3CCN(c4ccc(C=O)cc4)CC3)c(F)c2)C(=O)O1 [Example 1] | 2 µg/mL (≈ 4.54 µM) | 1 µg/mL (≈ 2.27 µM) | 1 µg/mL (≈ 2.27 µM) | 1 µg/mL (≈ 2.27 µM)
COC(=O)NC[C@H]1CN(c2ccc(N3CCN(c4ccc(/C=C5/SC(=S)N(CC(=O)O)C5=O)cc4)CC3)c(F)c2)C(=O)O1 [Example 10] | 8 µg/mL (≈ 12.7 µM) | 8 µg/mL (≈ 12.7 µM) | 8 µg/mL (≈ 12.7 µM) | 8 µg/mL (≈ 12.7 µM)
COC(=O)NC[C@H]1CN(c2ccc(N3CCN(c4ccc(/C=C5\SC(=O)NC5=O)cc4)CC3)c(F)c2)C(=O)O1 [Example 9, (S)-N-3-13-fluoro-4-(4-(5-methylene-1,3-thiazolidine-2,4-dione)phenylpiperazin-1-yl)phenyll-1,3-oxazolidin-2-one-5-methyl carbamate] | 1 µg/mL (≈ 1.8 µM) | 0.5 µg/mL (≈ 0.9 µM) | 1 µg/mL (≈ 1.8 µM) | 2 µg/mL (≈ 3.6 µM)
CCOC(=O)NC[C@H]1CN(c2ccc(N3CCN(c4ccc(CC5SC(=S)NC5=O)cc4)CC3)c(F)c2)C(=O)O1 (some centres unmarked) [Example 16] | > 16 µg/mL | > 16 µg/mL | > 16 µg/mL | > 16 µg/mL
CC(=O)NC[C@H]1CN(c2ccc(N3CCN(c4ccc(/C=C5/SC(=S)NC5=O)cc4)CC3)c(F)c2)C(=O)O1 [Example 5] | 2 µg/mL (≈ 3.6 µM) | 1 µg/mL (≈ 1.8 µM) | 1 µg/mL (≈ 1.8 µM) | 1 µg/mL (≈ 1.8 µM)
CC(=O)NC[C@H]1CN(c2ccc(N3CCN(c4ccc(CC5SC(=O)NC5=O)cc4)CC3)c(F)c2)C(=O)O1 (some centres unmarked) [Example 7] | 8 µg/mL (≈ 14.8 µM) | 8 µg/mL (≈ 14.8 µM) | 8 µg/mL (≈ 14.8 µM) | 8 µg/mL (≈ 14.8 µM)
CCOC(=O)NC[C@H]1CN(c2ccc(N3CCN(c4ccc(/C=C5/SC(=S)N(CC(=O)O)C5=O)cc4)CC3)c(F)c2)C(=O)O1 [Example 12] | > 16 µg/mL | > 16 µg/mL | > 16 µg/mL | > 16 µg/mL
COC(=O)NC[C@H]1CN(c2ccc(N3CCN(c4ccc(CC5C(=O)Nc6ccccc65)cc4)CC3)c(F)c2)C(=O)O1 (some centres unmarked) [Example 17] | 4 µg/mL (≈ 6.97 µM) | 4 µg/mL (≈ 6.97 µM) | 4 µg/mL (≈ 6.97 µM) | 4 µg/mL (≈ 6.97 µM)
CCOC(=O)NC[C@H]1CN(c2ccc(N3CCN(c4ccc(/C=C5/SC(=S)NC5=O)cc4)CC3)c(F)c2)C(=O)O1 [Example 13] | > 16 µg/mL | > 16 µg/mL | > 16 µg/mL | > 16 µg/mL
COC(=O)NC[C@H]1CN(c2ccc(N3CCN(c4ccc(/C=C5/SC(=S)NC5=O)cc4)CC3)c(F)c2)C(=O)O1 [Example 11] | > 16 µg/mL | > 16 µg/mL | > 16 µg/mL | > 16 µg/mL
CC(=O)NC[C@H]1CN(c2ccc(N3CCN(c4ccc(CC5C(=O)Nc6ccccc65)cc4)CC3)c(F)c2)C(=O)O1 (some centres unmarked) [Example 6] | 4 µg/mL (≈ 7.17 µM) | 4 µg/mL (≈ 7.17 µM) | 4 µg/mL (≈ 7.17 µM) | 4 µg/mL (≈ 7.17 µM)
CC(=O)NC[C@H]1CN(c2ccc(N3CCN(c4ccc(/C=C5/SC(=S)N(CC(=O)O)C5=O)cc4)CC3)c(F)c2)C(=O)O1 [Example 2] | 2 µg/mL (≈ 3.26 µM) | 2 µg/mL (≈ 3.26 µM) | 2 µg/mL (≈ 3.26 µM) | 2 µg/mL (≈ 3.26 µM)
CC(=O)NC[C@H]1CN(c2ccc(N3CCN(c4ccc(/C=C5\C(=O)Nc6ccccc65)cc4)CC3)c(F)c2)C(=O)O1 [Example 3] | > 16 µg/mL | 16 µg/mL (≈ 28.8 µM) | > 16 µg/mL | > 16 µg/mL
COC(=O)NC[C@H]1CN(c2ccc(N3CCN(c4ccc(CC5SC(=O)NC5=O)cc4)CC3)c(F)c2)C(=O)O1 (stereo partly drawn) [Example 14, [(5S)-3-[3-fluoro-4-(4-(5-methy-1,3-thiazolidine-2,4-dione)phenylpiperazin-1-yl)phenyll-1,3-oxazolidin-2-one-5-methyl carbamate] | 8 µg/mL (≈ 14.3 µM) | 4 µg/mL (≈ 7.17 µM) | 8 µg/mL (≈ 14.3 µM) | 8 µg/mL (≈ 14.3 µM)
CCOC(=O)NC[C@H]1CN(c2ccc(N3CCN(c4ccc(CC5C(=O)Nc6ccccc65)cc4)CC3)c(F)c2)C(=O)O1 (some centres unmarked) [Example 15] | > 16 µg/mL | > 16 µg/mL | > 16 µg/mL | > 16 µg/mL
